Experimental data from US7560466B2, “Methods of treating or preventing autoimmune diseases with 2,4-pyrimidinediamine compounds” (Rigel Pharmaceuticals, Inc., priority 2003, dated 2009).
Where two headings read alike, the source gives them in different places.

Assays:
[1] = test system: cultured human mast cells (CHMC), ionomycin-induced degranulation; test: CHMC low cell density ionomycin activation: tryptase assay; type: cell-based; conditions: ionomycin activation, read-out: LD Tryptase, CHMC, Iono, 3pt
[2] = test system: cultured human mast cells (CHMC), IgE-induced degranulation; test: CHMC low cell density IgE activation: tryptase assay; type: cell-based
Procedure, shortened: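 Cord-blood CD34+-derived mucosal mast cells (SCF/IL-6 medium), 1000–1500 cells/well, preincubated with compound 1 h at 37°C, then anti-IgE stimulated 30 min at 37°C.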

[3] = CHMC low cell density, 3pt, read-out: LD Tryptase, CHMC, IgE, 3pt
[4] = CHMC low cell density, 8pt, read-out: LD Tryptase, CHMC, IgE, 8pt
[5] = low cell density CHMC, 3-point, read-out: LD Tryptase, CHMC, IgE, 3pt
[6] = low cell density CHMC, 8-point, read-out: LD Tryptase, CHMC, IgE, 8pt

Structure (SMILES) | IC50 ([1]; CHMC low cell density, 3pt) | IC50 [2, 3] | IC50 [2, 4] | IC50 ([1]; low cell density CHMC, 3-point) | IC50 [2, 5] | IC50 [2, 6]
CN1C(=O)C(C)(C)Oc2ccc(Nc3nc(Cl)ncc3F)nc21 [Compound 1006, 2-Chloro-5-fluoro-N4-(3-oxo-2,2,4-trimethyl-5-pyrid[1,4]oxazin-6-yl)-4-pyrimidinea mine] | > 10 µM | > 10 µM | – | – | – | –
COc1c(C)cc(Nc2ncc(F)c(Nc3ccc4c(n3)N(C)C(=O)C(C)(C)O4)n2)cc1Cl [Compound 1009, N2-(3-Chloro-4-methoxy-5-methylphenyl)-5-fluoro-N4-(3-oxo-2,2,4-trimethyl-5-pyrid[1,4]oxazin-6-yl)-2,4-pyrimidinediamine] | > 10 µM | < 10 µM | < 10 µM | – | – | –
CCOc1c(C)cc(Nc2ncc(F)c(Nc3ccc4c(n3)NC(=O)C(C)(C)O4)n2)cc1Cl [Compound 1010, N2-(3-Chloro-4-ethoxy-5-methylphenyl)-N4-(2,2-dimethyl-3-oxo-4H-5-pyrid[1,4]oxazin-6-yl)-5-fluoro-2,4-pyrimidinediamine] | > 10 µM | < 10 µM | – | – | – | –
CN1C(=O)C(C)(C)Oc2ccc(Nc3nc(Nc4cccc(-c5ncco5)c4)ncc3F)nc21 [Compound 1012, 5-Fluoro-N2-[3-(oxazol-2-yl)phenyl]-N4-[3-oxo-2,2,4-trimethyl-5-pyrid[1,4]oxazin-6-yl]-2,4-pyrimidinediamine] | > 10 µM | < 10 µM | < 10 µM | – | – | –
CN1C(=O)C(C)(C)Oc2ccc(Nc3nc(Nc4ccc(-c5ncco5)cc4)ncc3F)nc21 [Compound 1013, 5-Fluoro-N2-[4-(oxazol-2-yl)phenyl]-N4-[3-oxo-2,2,4-trimethyl-5-pyrid[1,4]oxazin-6-yl]-2,4-pyrimidinediamine] | > 10 µM | < 10 µM | – | – | – | –
CCOC(=O)COc1c(C)cc(Nc2ncc(F)c(Nc3ccc4c(c3)NC(=O)C(C)(C)O4)n2)cc1Cl [Compound 1014, N2-[3-Chloro-4-ethoxycarbonylmethyleneoxy-5-methylphenyl]-N4-(2,2-dimethyl-3-oxo-4H-benz[1,4]oxazin-6-yl)-5-fluoro-2,4-pyrimidinediamine] | – | – | – | < 10 µM | < 10 µM | < 10 µM
CNC(=O)COc1cccc(Nc2ncc(F)c(Nc3ccc4c(n3)N(C)C(=O)C(C)(C)O4)n2)c1 [Compound 1015, 5-Fluoro-N2-[3-(N-methylamino)carbonylmethyleneoxyphenyl]-N4-[3-oxo-2,2,4-trimethyl-5-pyrid[1,4]oxazin-6-yl]-2,4-pyrimidinediamine] | – | – | – | > 10 µM | < 10 µM | < 10 µM
CN1C(=O)C(C)(C)Oc2ccc(Nc3nc(Nc4cccc(-c5cnco5)c4)ncc3F)nc21 [Compound 1017, 5-Fluoro-N2-[3-(oxazol-5-yl)phenyl]-N4-[3-oxo-2,2,4-trimethyl-5-pyrid[1,4]oxazin-6-yl]-2,4-pyrimidinediamine] | – | – | – | > 10 µM | < 10 µM | < 10 µM
CNC(=O)COc1cccc(Nc2ncc(F)c(N(C)c3ccc4c(c3)NC(=O)C(C)(C)O4)n2)c1 [Compound 1022, N4-(2,2-Dimethyl-3-oxo-4H-benz[1,4]oxazin-6-yl)-5-fluoro-N4-methyl-N2-[3-(N-methylamino)carbonylmethyleneoxyphenyl]-2,4-pyrimidinediamine] | – | – | – | > 10 µM | < 10 µM | < 10 µM

Further lines, results first:

IC50 ([1]; CHMC low cell density, 3pt) | IC50 [2, 3] | IC50 [2, 4] | IC50 ([1]; low cell density CHMC, 3-point) | IC50 [2, 5] | IC50 [2, 6] | Structure (SMILES)
> 10 µM | < 10 µM | – | – | – | – | CNC(=O)COc1c(C)cc(Nc2ncc(F)c(Nc3ccc4c(c3)OC(F)(F)C(F)(F)O4)n2)cc1C [Compound 637, N2-[3,5-Dimethyl-4-(N-methylamino)carbonylmethyleneoxyphenyl]-5-fluoro-N4-[3,4-(tetrafluoroethylenedioxy)phenyl]-2,4-pyrimidinediamine]
> 10 µM | < 10 µM | < 10 µM | – | – | – | COC(=O)Cn1ccc2ccc(Nc3ncc(F)c(Nc4ccc5c(c4)NC(=O)C(C)(C)O5)n3)cc21 [Compound 639, N4-(2,2-Dimethyl-3-oxo-4H-benz[1,4]oxazin-6-yl)-5-fluoro-N2-[1-(methoxycarbonylmethylene)indol-6-yl]-2,4-pyrimidinediamine]
> 10 µM | < 10 µM | < 10 µM | – | – | – | COC(=O)Cn1ccc2ccc(Nc3ncc(F)c(Nc4ccc5c(c4)OCCO5)n3)cc21 [Compound 642, N4-(3,4-Ethylenedioxyphenyl)-5-fluoro-N2-[1-(methoxycarbonylmethylene)indol-6-yl]-2,4-pyrimidinediamine]
> 10 µM | < 10 µM | < 10 µM | – | – | – | COC(=O)Cn1ccc2cc(Nc3ncc(F)c(Nc4ccc5c(c4)NC(=O)C(C)(C)O5)n3)ccc21 [Compound 643, N4-(2,2-Dimethyl-3-oxo-4H-benz[1,4]oxazin-6-yl)-5-fluoro-N2-[1-(methoxycarbonylmethylene)indol-5-yl]-2,4-pyrimidinediamine]
> 10 µM | < 10 µM | < 10 µM | – | – | – | COC(=O)Cn1ccc2cc(Nc3ncc(F)c(Nc4ccc5c(c4)OCCO5)n3)ccc21 [Compound 647, N4-(3,4-Ethylenedioxyphenyl)-5-fluoro-N2-[1-(methoxycarbonylmethylene)indol-5-yl]-2,4-pyrimidinediamine]
> 10 µM | < 10 µM | < 10 µM | – | – | – | CNC(=O)Cn1ccc2ccc(Nc3ncc(F)c(Nc4ccc5c(c4)OCCO5)n3)cc21 [Compound 649, N4-(3,4-Ethylenedioxyphenyl)-5-fluoro-N2-[1-(N-methylamino)carbonylmethyleneindol-6-yl]-2,4-pyrimidinediamine]
> 10 µM | < 10 µM | < 10 µM | – | – | – | CC1(C)Oc2ccc(Nc3nc(Nc4ccc5c(cnn5CCCNS(C)(=O)=O)c4)ncc3F)nc2NC1=O [Compound 836, N4-(2,2-Dimethyl-3-oxo-4H-5-pyrid[1,4]oxazin-6-yl)-5-fluoro-N2-[1-[3-(N-methylsulfonylamino)propyl]indazol-5-yl]-2,4-pyrimidinediamine]
> 10 µM | < 10 µM | < 10 µM | – | – | – | Cc1cc(Nc2ncc(F)c(Nc3ccc4c(n3)NC(=O)C(C)(C)O4)n2)cc(Cl)c1O [Compound 996, N2-(3-Chloro-4-hydroxy-5-methylphenyl)-N4-(2,2-dimethyl-3-oxo-4H-5-pyrid[1,4]oxazin-6-yl)-5-fluoro-2,4-pyrimidinediamine]
< 10 µM | – | < 10 µM | – | – | – | CNC(=O)COc1cccc(Nc2ncc(F)c(Nc3ccc4c(c3)NCC(C)(C)O4)n2)c1 [Compound 1000, N4-(3,4-Dihydro-2,2-dimethyl-4H-benz[1,4]oxazin-6-yl)-5-fluoro-N2-[3-(N-methylamino)carbonylmethyleneoxyphenyl]-2,4-pyrimidinediamine]
> 10 µM | < 10 µM | – | – | – | – | Cc1ccccc1Nc1ncc(F)c(Nc2ccc3c(n2)NC(=O)C(C)(C)O3)n1 [Compound 1004, N4-(2,2-Dimethyl-3-oxo-4H-5-pyrid[1,4]oxazin-6-yl)-5-fluoro-N2-(2-methylphenyl)-2,4-pyrimidinediamine]
> 10 µM | < 10 µM | – | – | – | – | CN1C(=O)C(C)(C)Oc2ccc(N(C)c3nc(Cl)ncc3F)nc21 [Compound 1005, 2-Chloro-5-fluoro-N4-methyl-N4-(3-oxo-2,2,4-trimethyl-5-pyrid[1,4]oxazin-6-yl)-4-pyrimdinea mine]
